Earlier results as cited in patent US20050124791A1, “Ion channel” (priority 2001, published 2005).

System: adenylate cyclase from the outer segment of the bovine retina
Details: membrane-associated and purified soluble enzyme

Nc1nc2c(ncn2[C@@H]2O[C@H](COP(=O)(O)OP(=O)(O)OP(=O)(O)O)[C@@H](O)[C@H]2O)c(=O)[nH]1 [GTP]
stimulation of the enzyme: Neither the membrane-associated nor the purified soluble enzyme can be stimulated

GMPPhT
stimulation of the enzyme: Neither the membrane-associated nor the purified soluble enzyme can be stimulated

Nc1nc2c(ncn2[C@@H]2O[C@H](COP(=O)(O)OP(=O)(O)OP(O)(O)=S)[C@@H](O)[C@H]2O)c(=O)[nH]1 [GTPyS]
stimulation of the enzyme: Neither the membrane-associated nor the purified soluble enzyme can be stimulated
